From publication PMC5515859, “Metabolism of F18, a Derivative of Calanolide A, in Human Liver Microsomes and Cytosol” (Frontiers in Pharmacology, 2017)

These compounds were tested on rat liver microsomes (assay: Incubation of F18 with rat liver microsomes, metabolite profiling). Conditions: F18 50 μM, 1 h.
Format: in vitro ADME
Design: key: +: Metabolite detected; −: metabolite not detected
Protocol: (§1) A stock solution of F18 (5 mM) was prepared in methanol. F18 (50 μM) was incubated with RLMs/DLMs/MLMs/HLMs and HLcy (0.5 mg protein/mL) in 50 mM Tris-HCl buffer containing 5 mM MgCl2 (pH 7.4) in a final volume of 200 μL. The final concentration of methanol in the incubation system was 1% (v/v). After 3 min of preincubation at 37°C, the reactions were initiated by the addition of NADPH-regenerating system (10-mM β-NADP, 100-mM 6-G-P and 10-U/mL 6-G-P-DH) or NADH. After incubation for 1 h, the reactions were terminated by the addition of two volumes of ice-cold acetonitrile. Samples without NADPH or NADH were included as controls. The incubation mixture was vortexed and centrifuged at 13,300 × g for 5 min. A 10 μL aliquot of the supernatant was injected into an LC-tandem mass spectrometer (LC-MS/MS) for analysis.
(§2) Metabolic profiling studies were performed with a Finnigan TSQ Quantum MS instrument with an electrospray ionization probe and a Finnigan SURVEYOR HPLC system (Thermo Finnigan, San Jose, CA, USA). HPLC was performed with a Zorbax SB-C18 column (2.1 × 100 mm, 3.5 μm, Agilent Corporation, CA, USA) with a column temperature of 35°C and a flow rate of 200 μL/min. F18 and its metabolites were eluted using a linear gradient method with a mobile phase consisting of solvent A (water with 0.1% formic acid) and solvent B (acetonitrile with 0.1% formic acid). […] The samples were analyzed in the positive-ionization mode, and the TSQ capillary temperature was set to 350°C. Nitrogen was used as both the sheath gas and the auxiliary gas and was delivered at 30 psi and 15 psi, respectively. The spray voltage and tube lens were set to 3,800 V and 123 V, respectively. The full-width half maximum (FWHM) was set to 0.7. MS data were acquired in the selective ion-recording mode or by collecting full scans from 200 to 600 m/z at 1 scan/s. The mass spectrometer and HPLC system were operated using Xcalibur 2.0.7 software.
In the case of CCCc1cc(=O)oc2c3c(c4c(c12)OC(C)(C)C=C4)OC(CO)CC3=O (stereo not drawn) [Metabolite M1], the “F18 metabolite detected in RLM” value is reported as “+”.
In the case of CCCc1cc(=O)oc2c3c(c4c(c12)OC(C)(C)C=C4)O[C@H](CCl)C[C@@H]3O (relative stereo) [Metabolite M3-2, cis-12-hydroxy F18], the “F18 metabolite detected in RLM” value is reported as “+”.
CCCc1cc(=O)oc2c3c(c4c(c12)OC(C)(C)C=C4)O[C@H](CCl)C[C@H]3O (relative stereo) [Metabolite M3-1, trans-12-hydroxy F18] was tested, and the “F18 metabolite detected in RLM” value was “+”.

The compounds below were run against T1, recombinant FMO1 (Homo sapiens, UniProt Q01740) (assay: Metabolism of F18 by cDNA-expressed FMO1). Conditions: F18 10 μM, 50 pmol/mL enzyme, 1 h.
T1 construct: purchased BD Gentest (Woburn, MA, USA)
T1 sequence (Q01740 1-532): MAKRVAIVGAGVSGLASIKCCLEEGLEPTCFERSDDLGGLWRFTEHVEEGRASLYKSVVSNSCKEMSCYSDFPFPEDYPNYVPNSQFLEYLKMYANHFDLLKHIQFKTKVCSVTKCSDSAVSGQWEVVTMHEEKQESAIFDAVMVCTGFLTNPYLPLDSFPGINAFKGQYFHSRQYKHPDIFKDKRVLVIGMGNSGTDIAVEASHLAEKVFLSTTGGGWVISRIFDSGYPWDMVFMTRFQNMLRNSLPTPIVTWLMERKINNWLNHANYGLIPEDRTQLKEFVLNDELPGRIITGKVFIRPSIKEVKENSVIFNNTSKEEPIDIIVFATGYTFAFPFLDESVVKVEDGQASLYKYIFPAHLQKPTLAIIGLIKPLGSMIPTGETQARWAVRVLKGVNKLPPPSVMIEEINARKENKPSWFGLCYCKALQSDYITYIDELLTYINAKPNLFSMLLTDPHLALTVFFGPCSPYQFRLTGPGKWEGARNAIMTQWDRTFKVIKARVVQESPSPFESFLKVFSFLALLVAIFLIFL
Format: in vitro ADME
Protocol: (§3) To further verify the roles of CYPs and FMOs in the metabolism of F18 in humans, F18 (10 μM) was incubated individually with 14 cDNA-expressed human CYP isozymes (50-pmol/mL CYP1A1, CYP1A2, CYP2A6, CYP2B6, CYP2C8, CYP2C9, CYP2C19, CYP2D6, CYP2E1, CYP2J2, CYP3A4, CYP4F2, CYP4F3, and CYP4A11) and three cDNA-expressed FMO enzymes (50-pmol/mL FMO1, FMO3, and FMO5). The incubation conditions were similar to those used for HLMs (described above), with the exception of the incubating time […]. Samples incubated without NADPH were used as the negative control.
With CCCc1cc(=O)oc2c3c(c4c(c12)OC(C)(C)C=C4)OC(CO)CC3=O (stereo not drawn) [Metabolite M1] the “Metabolite detected in incubation with recombinant FMO1” value was “not detected”.
For CCCc1cc(=O)oc2c3c(c4c(c12)OC(C)(C)C=C4)O[C@H](CCl)C[C@@H]3O (relative stereo) [Metabolite M3-2, cis-12-hydroxy F18], the “Metabolite detected in incubation with recombinant FMO1” value was “detected”.
In the case of CCCc1cc(=O)oc2c3c(c4c(c12)OC(C)(C)C=C4)O[C@H](CCl)C[C@H]3O (relative stereo) [Metabolite M3-1, trans-12-hydroxy F18], the “Metabolite detected in incubation with recombinant FMO1” value is reported as “detected”.

Each compound was assayed on monkey liver microsomes (assay: Incubation of F18 with monkey liver microsomes, metabolite profiling). Conditions: F18 50 μM, 1 h.
Format: in vitro ADME
Design: key: +: Metabolite detected; −: metabolite not detected
Protocol: as §1, §2
In the case of CCCc1cc(=O)oc2c3c(c4c(c12)OC(C)(C)C=C4)OC(CO)CC3=O (stereo not drawn) [Metabolite M1], the “F18 metabolite detected in MLM” value is reported as “+”.
CCCc1cc(=O)oc2c3c(c4c(c12)OC(C)(C)C=C4)O[C@H](CCl)C[C@@H]3O (relative stereo) [Metabolite M3-2, cis-12-hydroxy F18] was tested, and the “F18 metabolite detected in MLM” value was “+”.
With CCCc1cc(=O)oc2c3c(c4c(c12)OC(C)(C)C=C4)O[C@H](CCl)C[C@H]3O (relative stereo) [Metabolite M3-1, trans-12-hydroxy F18] the “F18 metabolite detected in MLM” value was “+”.

The compounds below were run on human liver cytosol (assay: Incubation of F18 with human liver cytosol, metabolite profiling). Conditions: F18 50 μM, 1 h, NADH.
Format: in vitro ADME
Design: key: +: Metabolite detected; −: metabolite not detected
Protocol: as §1, §2
CCCc1cc(=O)oc2c3c(c4c(c12)OC(C)(C)C=C4)OC(CO)CC3=O (stereo not drawn) [Metabolite M1] was tested, and the “F18 metabolite detected in HLcy with NADH” value was “−”.
In the case of CCCc1cc(=O)oc2c3c(c4c(c12)OC(C)(C)C=C4)O[C@H](CCl)C[C@@H]3O (relative stereo) [Metabolite M3-2, cis-12-hydroxy F18], the “F18 metabolite detected in HLcy with NADH” value is reported as “+”.
For CCCc1cc(=O)oc2c3c(c4c(c12)OC(C)(C)C=C4)O[C@H](CCl)C[C@H]3O (relative stereo) [Metabolite M3-1, trans-12-hydroxy F18], the “F18 metabolite detected in HLcy with NADH” value was “+”.

Same assay, conditions: F18 50 μM, 1 h, NADPH
With CCCc1cc(=O)oc2c3c(c4c(c12)OC(C)(C)C=C4)OC(CO)CC3=O (stereo not drawn) [Metabolite M1] the “F18 metabolite detected in HLcy with NADPH” value was “−”.
In the case of CCCc1cc(=O)oc2c3c(c4c(c12)OC(C)(C)C=C4)O[C@H](CCl)C[C@@H]3O (relative stereo) [Metabolite M3-2, cis-12-hydroxy F18], the “F18 metabolite detected in HLcy with NADPH” value is reported as “+”.
With CCCc1cc(=O)oc2c3c(c4c(c12)OC(C)(C)C=C4)O[C@H](CCl)C[C@H]3O (relative stereo) [Metabolite M3-1, trans-12-hydroxy F18] the “F18 metabolite detected in HLcy with NADPH” value was “+”.

These compounds were tested against T2, recombinant FMO3 (Homo sapiens, UniProt P31513) (assay: Metabolism of F18 by cDNA-expressed FMO3). Conditions: F18 10 μM, 50 pmol/mL enzyme, 1 h.
T2 construct: purchased BD Gentest (Woburn, MA, USA)
T2 sequence (P31513 1-532): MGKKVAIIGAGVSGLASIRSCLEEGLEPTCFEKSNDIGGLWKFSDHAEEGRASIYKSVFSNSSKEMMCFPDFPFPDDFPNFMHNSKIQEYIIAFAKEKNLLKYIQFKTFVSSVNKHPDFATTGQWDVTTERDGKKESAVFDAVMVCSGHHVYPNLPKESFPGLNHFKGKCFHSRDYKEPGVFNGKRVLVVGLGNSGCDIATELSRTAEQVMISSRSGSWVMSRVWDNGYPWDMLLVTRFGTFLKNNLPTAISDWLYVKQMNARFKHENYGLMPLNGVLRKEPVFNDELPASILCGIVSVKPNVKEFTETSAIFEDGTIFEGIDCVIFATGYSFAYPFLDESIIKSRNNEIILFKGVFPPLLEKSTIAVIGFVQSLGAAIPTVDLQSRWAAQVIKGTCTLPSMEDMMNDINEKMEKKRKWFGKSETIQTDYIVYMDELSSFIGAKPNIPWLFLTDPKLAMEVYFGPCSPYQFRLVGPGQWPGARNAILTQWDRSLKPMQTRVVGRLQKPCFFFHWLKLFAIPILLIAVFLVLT
Format: in vitro ADME
Protocol: as §3
CCCc1cc(=O)oc2c3c(c4c(c12)OC(C)(C)C=C4)OC(CO)CC3=O (stereo not drawn) [Metabolite M1] was tested, and the “Metabolite detected in incubation with recombinant FMO3” value was “not detected”.
With CCCc1cc(=O)oc2c3c(c4c(c12)OC(C)(C)C=C4)O[C@H](CCl)C[C@@H]3O (relative stereo) [Metabolite M3-2, cis-12-hydroxy F18] the “Metabolite detected in incubation with recombinant FMO3” value was “detected”.
With CCCc1cc(=O)oc2c3c(c4c(c12)OC(C)(C)C=C4)O[C@H](CCl)C[C@H]3O (relative stereo) [Metabolite M3-1, trans-12-hydroxy F18] the “Metabolite detected in incubation with recombinant FMO3” value was “detected”.
